# According to PMC5590943, “Pharmacological characterisation of S 47445, a novel positive allosteric modulator of AMPA receptors” (PLoS ONE, 2017):
# Columns and labels:
# [1] = target: T1, human AMPA receptor GluA1o (GluA1 flop) (Homo sapiens, UniProt P42261); assay: Glutamate-evoked currents, oocytes expressing recombinant human AMPA receptors; assay type: cell-based
# T1 construct: host or cells: Xenopus laevis oocytes
# Method: (§1) Compounds were tested by bath application.
# [2] = target: T2, human AMPA receptor GluA1o/2o (Homo sapiens, UniProt P42261+P42262, Q607R); assay: as above; assay type: cell-based
# T2 construct: host or cells: Xenopus laevis oocytes
# Method: as §1
# [3] = target: T3, human AMPA receptor GluA1o/2i (Homo sapiens, UniProt P42261+P42262, Q607R); assay: as above; assay type: cell-based
# T3 construct: host or cells: Xenopus laevis oocytes
# Method: as §1
# [4] = target: T4, human AMPA receptor GluA1i/2o (Homo sapiens, UniProt P42261+P42262, Q607R); assay: as above; assay type: cell-based
# T4 construct: host or cells: Xenopus laevis oocytes
# T4 sequence (P42261 19-906 isoform P42261-2 limits assumed, stated change not applied): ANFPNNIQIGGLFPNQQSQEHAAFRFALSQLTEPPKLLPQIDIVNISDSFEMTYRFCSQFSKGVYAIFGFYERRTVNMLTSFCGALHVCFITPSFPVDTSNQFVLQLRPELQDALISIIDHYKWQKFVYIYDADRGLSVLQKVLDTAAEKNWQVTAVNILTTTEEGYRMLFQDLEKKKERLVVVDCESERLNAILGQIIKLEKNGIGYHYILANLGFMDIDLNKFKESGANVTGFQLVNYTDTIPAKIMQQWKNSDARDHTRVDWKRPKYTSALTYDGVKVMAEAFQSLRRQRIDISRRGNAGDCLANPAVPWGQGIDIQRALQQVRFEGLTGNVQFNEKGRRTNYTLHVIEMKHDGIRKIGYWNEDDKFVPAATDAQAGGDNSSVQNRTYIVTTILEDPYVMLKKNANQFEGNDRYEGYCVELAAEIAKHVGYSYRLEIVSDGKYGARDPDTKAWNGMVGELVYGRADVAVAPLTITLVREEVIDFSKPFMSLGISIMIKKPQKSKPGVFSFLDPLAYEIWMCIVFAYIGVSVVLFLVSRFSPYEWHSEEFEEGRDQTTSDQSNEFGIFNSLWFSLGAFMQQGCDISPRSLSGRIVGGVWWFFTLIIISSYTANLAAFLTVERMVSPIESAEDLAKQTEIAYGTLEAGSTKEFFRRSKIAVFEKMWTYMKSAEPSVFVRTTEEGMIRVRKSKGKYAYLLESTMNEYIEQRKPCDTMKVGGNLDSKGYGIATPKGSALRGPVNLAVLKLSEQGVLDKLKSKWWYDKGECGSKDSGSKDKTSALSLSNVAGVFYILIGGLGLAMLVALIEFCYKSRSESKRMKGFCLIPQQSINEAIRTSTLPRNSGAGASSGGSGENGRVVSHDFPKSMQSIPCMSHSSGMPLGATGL
# T4 sequence (P42262 22-883 Q607R limits assumed): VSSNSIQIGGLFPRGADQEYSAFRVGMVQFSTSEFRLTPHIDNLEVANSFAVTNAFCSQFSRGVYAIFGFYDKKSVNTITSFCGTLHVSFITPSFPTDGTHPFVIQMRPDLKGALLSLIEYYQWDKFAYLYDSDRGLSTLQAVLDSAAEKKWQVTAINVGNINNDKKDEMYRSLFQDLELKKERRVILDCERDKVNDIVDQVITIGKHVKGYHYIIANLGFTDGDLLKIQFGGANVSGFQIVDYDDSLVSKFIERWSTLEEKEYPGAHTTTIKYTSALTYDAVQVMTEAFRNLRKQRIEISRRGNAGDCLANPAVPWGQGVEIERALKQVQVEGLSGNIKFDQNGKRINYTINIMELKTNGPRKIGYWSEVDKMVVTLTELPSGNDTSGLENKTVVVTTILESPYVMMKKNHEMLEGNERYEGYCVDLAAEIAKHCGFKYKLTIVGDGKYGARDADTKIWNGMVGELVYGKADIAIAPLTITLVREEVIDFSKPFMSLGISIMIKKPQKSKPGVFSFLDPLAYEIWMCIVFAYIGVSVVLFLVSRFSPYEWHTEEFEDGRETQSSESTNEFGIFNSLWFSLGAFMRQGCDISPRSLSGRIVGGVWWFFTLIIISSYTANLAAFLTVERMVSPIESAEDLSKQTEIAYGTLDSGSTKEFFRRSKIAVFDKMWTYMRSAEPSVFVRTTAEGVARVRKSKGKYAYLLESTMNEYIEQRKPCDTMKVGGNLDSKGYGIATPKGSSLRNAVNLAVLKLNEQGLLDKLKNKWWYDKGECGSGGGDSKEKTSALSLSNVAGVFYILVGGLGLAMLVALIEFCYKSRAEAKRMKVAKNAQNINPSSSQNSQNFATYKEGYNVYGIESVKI
# Method: as §1
# [5] = system: human AMPA receptor GluA1o (GluA1 flop); assay: as above; assay type: cell-based; conditions: S 47445 100 μM
# Method: as §1
# [6] = target: T5, human AMPA receptor GluA4i/2o (Homo sapiens, UniProt P42262+P48058, Q607R); assay: as above; assay type: cell-based
# T5 construct: host or cells: Xenopus laevis oocytes
# Method: as §1
# [7] = target: T6, human AMPA receptor GluA4o/2i (Homo sapiens, UniProt P42262+P48058, Q607R); assay: as above; assay type: cell-based
# T6 construct: host or cells: Xenopus laevis oocytes
# Method: as §1
# [8] = target: T7, human AMPA receptor GluA4o (GluA4 flop) (Homo sapiens, UniProt P48058, A778Q/D799G/G801D/K798G/P767A/P797S/S776N/S800G/T766N/V780L); assay: as above; assay type: cell-based
# T7 construct: host or cells: Xenopus laevis oocytes
# Method: as §1
# [9] = target: T8, human AMPA receptor GluA4o/2o (Homo sapiens, UniProt P42262+P48058, A778Q/D799G/G801D/K798G/P767A/P797S/Q607R/S776N/S800G/T766N/V780L); assay: as above; assay type: cell-based
# T8 construct: host or cells: Xenopus laevis oocytes
# Method: as §1
# [10] = target: T9, human AMPA receptor GluA1i (GluA1 flip) (Homo sapiens, UniProt P42261); assay: as above; assay type: cell-based
# T9 construct: host or cells: Xenopus laevis oocytes
# T9 sequence (P42261 19-906 isoform P42261-2 limits assumed): as the sequence (P42261 19-906 isoform P42261-2 limits assumed, stated change not applied) above
# Method: as §1
# [11] = target: GluA1flop/GluA2flip (GluA1o/2i) AMPA receptors (Homo sapiens, UniProt P42261+P42262, Q607R); assay: Whole cell patch clamp recordings in transiently transfected HEK-293 cells; conditions: 0.1 μM S 47445
# Sequence of GluA1flop/GluA2flip (GluA1o/2i) AMPA receptors (P42261 19-906): as the sequence (P42261 19-906 isoform P42261-2 limits assumed, stated change not applied) above, with G740N, S750N, V754L, S760N, K772G, D773G, S774G, G775D counted along it
# Sequence of GluA1flop/GluA2flip (GluA1o/2i) AMPA receptors (P42262 25-883 isoform P42262-2 Q607R): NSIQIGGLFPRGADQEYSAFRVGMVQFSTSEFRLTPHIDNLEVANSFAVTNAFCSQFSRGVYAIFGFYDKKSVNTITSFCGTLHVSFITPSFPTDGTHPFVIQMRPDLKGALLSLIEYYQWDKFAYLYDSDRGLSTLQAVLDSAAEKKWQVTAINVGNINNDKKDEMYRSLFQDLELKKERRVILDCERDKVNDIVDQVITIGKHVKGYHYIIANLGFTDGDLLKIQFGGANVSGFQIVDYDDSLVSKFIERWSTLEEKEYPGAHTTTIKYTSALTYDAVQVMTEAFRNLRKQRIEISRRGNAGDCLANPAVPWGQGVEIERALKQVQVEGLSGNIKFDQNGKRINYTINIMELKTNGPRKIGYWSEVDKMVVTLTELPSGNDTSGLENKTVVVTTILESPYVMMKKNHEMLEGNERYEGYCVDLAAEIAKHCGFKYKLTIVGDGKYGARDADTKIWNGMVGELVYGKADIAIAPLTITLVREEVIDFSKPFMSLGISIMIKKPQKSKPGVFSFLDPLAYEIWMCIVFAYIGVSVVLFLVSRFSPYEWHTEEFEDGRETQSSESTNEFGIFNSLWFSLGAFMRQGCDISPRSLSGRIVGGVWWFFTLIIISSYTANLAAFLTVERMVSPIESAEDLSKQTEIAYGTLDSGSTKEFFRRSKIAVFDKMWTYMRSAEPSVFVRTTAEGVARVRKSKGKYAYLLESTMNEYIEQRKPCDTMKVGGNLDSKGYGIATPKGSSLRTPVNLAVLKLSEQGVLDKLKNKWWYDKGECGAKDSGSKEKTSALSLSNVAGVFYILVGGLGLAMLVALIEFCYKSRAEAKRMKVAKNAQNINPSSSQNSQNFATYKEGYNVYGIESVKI
# 5-HT1B = 5-HT1B (Rattus norvegicus, UniProt P28564); assay: Binding assay, [125I]CYP (+ 30 μM (-)propranolol); conditions: probe [125I]CYP
# Sequence of 5-HT1B (P28564 whole entry): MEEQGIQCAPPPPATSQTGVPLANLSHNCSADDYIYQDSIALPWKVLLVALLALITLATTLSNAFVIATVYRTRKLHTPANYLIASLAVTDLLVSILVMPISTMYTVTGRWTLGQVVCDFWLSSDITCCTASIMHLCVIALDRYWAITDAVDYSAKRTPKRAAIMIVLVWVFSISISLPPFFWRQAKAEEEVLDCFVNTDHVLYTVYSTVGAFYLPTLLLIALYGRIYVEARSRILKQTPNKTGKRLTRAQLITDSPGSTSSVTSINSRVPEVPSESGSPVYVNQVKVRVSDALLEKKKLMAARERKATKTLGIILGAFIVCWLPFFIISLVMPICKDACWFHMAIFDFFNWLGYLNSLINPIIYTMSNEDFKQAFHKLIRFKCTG
# [12] = design: method as in previous kinetic experiments (reference not given); conditions: 0.3 mg/kg oral, mice; ref previous kinetic experiments (reference not given); read-out: Cerebral Cmax; cited from earlier work
# [13] = target: AMPA/Kainate chimera GluA1(K2NTD) (Homo sapiens, UniProt P42261+Q13002); assay: Glutamate-evoked current in oocytes expressing AMPA/Kainate chimera; assay type: cell-based
# Method: as §1
# Human AMPA receptors = assay: AMPA-evoked currents, Xenopus laevis oocytes injected with human hippocampal poly(A+) mRNA; assay type: cell-based; conditions: geometric mean
# Method: as §1
# male C57Bl/6 mice = assay: Spontaneous alternation in a T-maze in mice; assay type: in vivo, mouse; conditions: 180 s inter-trial delay
# Method: Novel object recognition and T-maze studies were conducted respectively in male OFA rats (150–175 g, Charles River, Saint-Germain-Nuelles, France) and male C57Bl/6 mice (5.5–6.5 month-old, Charles River, Saint-Germain-Nuelles, France). Animals were housed in collective cages with continuous access to tap water and food on a 12 h light-dark cycle, in a temperature-controlled (21 ± 1°C) and ventilated room. On completion of studies subjects were euthanized by either CO2 inhalation or intraperitoneal (i.p.) lethal pentobarbital injection. The novel object recognition test was used as the primary in vivo screening assay to identify AMPA-PAMs. The T-maze task was performed using a modified continuous performance procedure previously described in mice. […]
# Behavioral testing was conducted in a T-shaped maze made of grey Plexiglas using mice. […] Photoelectric cells detected the position of the mouse on the maze. […]
# Both alternation performance and latency of entry were assessed. […] The successive sequence of visits for the 7 first trials determined the level of alternation. A percentage of alternation was calculated for each mouse, and corresponded to the number of alternations performed relative to the number maximal of alternation (n = 6). […] The mean latency of entry from trial 2 to trial 7 was calculated for each mouse. […]
structure (smiles),measurement,setting,value
"O=C1c2cc3nnn(CCc4cccc(F)c4)c(=O)c3cc2OCN1C1CC1 [S 47445, 8-cyclopropyl-3-[2-(3-fluorophenyl)ethyl]-7,8-dihydro-3H-[1,3]oxazino[6,5-g][1,2,3]benzotriazine-4,9-dione]",EC50,[1],2.5 µM
same,EC50,[2],3.9 µM
same,EC50,[3],5.4 µM
same,EC50,[4],4.3 µM
same,"Amplitude of potentiation, flop variants compared to flip variants at GluA1",[5],about 9 fold
same,EC50,[6],3.3 µM
same,EC50,[7],3.8 µM
same,EC50,[8],0.7 µM
same,EC50,[9],2.9 µM
same,EC50,[10],5.4 µM
same,Leftward shift in the EC50 of glutamate,[11],about 16 fold
same,Amplitude of the glutamate response in presence of S 47445,[11]; control 94.7 ± 32.8 pA,247 ± 70 pA
same,inhibition at 100 nM,5-HT1B,-7%
same,inhibition at 10 µM,5-HT1B,-3%
same,Cmax,[12],100 to 200 nM
same,EC50,[13],4.2 µM
same,EC2X,Human AMPA receptors; concentration giving a two-fold increase in current amplitude,4.77 µM
same,EC50,Human AMPA receptors; potentiation of 10 μM AMPA-evoked current,7.08 µM
same,Spontaneous alternation versus vehicle,"male C57Bl/6 mice; 0.3 mg/kg i.p. acute, p≤0.05",improved the performance of spontaneous alternation
same,Spontaneous alternation versus vehicle,"male C57Bl/6 mice; 1 mg/kg i.p. acute, p = 0.07",improved the performance of spontaneous alternation
